What all share (assay type): cell-based
One experiment concerns CCRF-CEM. As to the kind of experiment: Cytostatic/cytotoxic MTT assay, CCRF-CEM. As to conditions: Homo sapiens, 72 h incubation, read-out: MTT, IC50 CCRF-CEM. An excerpt: (§1) Unless otherwise stated, all cells were purchased from the […] (ATCC). The CCRF-CEM line is derived from T lymphoblastic leukemia, evincing high chemosenzitivity, K562 represent cells from a […] patient sample with bcr-abl translocation, HCT116 is colorectal tumor cell line and its p53 gene knock-down counterpart (HCT116p53−/−, Horizon Discovery, UK) is a model of human cancers with p53 inactivation frequently associated with poor prognosis, A549 cell line is lung adenocarcinoma. The daunorubicin resistant subline of CCRF-CEM cells (CEM-DNR bulk) and paclitaxel resistant subline K562-TAX were selected in our laboratory by cultivation of maternal cell lines in increasing concentrations of daunorubicine or paclitaxel, respectively. The CEM-DNR cells overexpress mrp-1 and mdr-1 genes, while K562-TAX cells overexpress mdr-1 only. Both proteins belong to the family of ABC transporters and are involved in the primary and/or acquired multidrug resistance phenomenon (ref.: Gottesman, M. M.; Fojo, T.; Bates, S. E. Multidrug resistance in cancer: role of ATP-dependent transporters. Nat. Rev. Cancer. 2002, 2, 48-58. (b) Noskova, V.; Dzubak, P.; Kuzmina, G.; Ludkova, A.; Stehlik, D.; Trojanec, R.; Janostakova, A.; Korinkova, G.; Mihal, V.; Hajduch, M. In vitro chemoresistance profile and expression/function of MDR associated proteins in resistant cell lines derived from CCRF-CEM, K562, A549 and MDA MB 231 parental cells. Neoplasma 2002, 49, 418-425). Non-malignant MRC-5 and BJ cells, derived from normal human fibroblasts, were used as controls. The cells were maintained in Nunc/Corning 80 cm^2 plastic tissue culture flasks and cultured in cell culture medium (DMEM/RPMI 1640 with 5 g/L glucose, 2 mM glutamine, 100 U/mL penicillin, 100 µg/mL streptomycin, 10% fetal calf serum, and NaHCO3). Cell suspensions were prepared and diluted according to the particular cell type and the expected target cell density (25,000-30,000 cells/well based on cell growth characteristics). Cells were added by pipette (80 L) into 96-well microtiter plates. Inoculates were allowed a pre-incubation period of 24 h at 37° C. and 5% CO2 for stabilization. Four-fold dilutions, in 20-L aliquots, of the intended test concentration were added to the microtiter plate walls at time zero. All test compound concentrations were examined in duplicate. Incubation of the cells with the test compounds lasted for 72 h at 37° C., in a 5% CO2 atmosphere at 100% humidity. At the end of the incubation period, the cells were assayed using MTT. Aliquots (10 L) of the MTT stock solution (5 mg/ml) were pipetted into each well and incubated for another 1-4 h. After this incubation period the formazan produced was dissolved by addition of 100 µL/well of 10% aq SDS (pH 5.5), followed by a further incubation at 37° C. overnight. The optical density was measured at 540 nm. The IC50 value, the drug concentration inhibiting the cell growth by 50%, was calculated from appropriate dose-response curves.
(§2) In vitro cytotoxic/cytostatic activity final nucleosides 1-5 was initially evaluated against […] cell lines derived from human solid tumors including lung (A549 cells) and colon (HCT116 and HCT116p53−/−) carcinomas, as well as leukemia cell lines (CCRF-CEM, CEM-DNR, K562 and K562-TAX) and, for comparison, non-malignant BJ and MRC-5 fibroblasts. Concentrations inhibiting the cell growth by 50% (IC50) were determined using a quantitative metabolic staining with 3-(4,5-dimethylthiazol-2-yl)-2,5-diphenyltetrazolium bromide (MTT) (ref.: Denizot, F.; Lang, R. Rapid colorimetric assay for cell growth and survival: Modifications to the tetrazolium dye procedure giving improved sensitivity and reliability. J. Immunol. Meth. 1986, 89, 271-277) following a 3-day treatment.
In general terms: Formazan colour is commonly taken as a measure of viable cells.

The next experiment relates to K562. The experiment is described as follows: Cytostatic/cytotoxic MTT assay, K562. Conditions: Homo sapiens, K562; 72 h incubation; read-out: MTT, IC50 K562.
Excerpt: as §1, §2

In another experiment the test system is HCT116p53-/-. The experiment is described as follows: Cytostatic/cytotoxic MTT assay, HCT116p53-/-. Conditions: Homo sapiens, HCT-116; 72 h incubation; read-out: MTT, IC50 HCT116 p53-/-.
Excerpt: as §1, §2
Multidrug resistance is a major therapeutic problem in cancer chemotherapy. […]

For another experiment, the system named is BJ. The experiment is described as follows: Cytostatic/cytotoxic MTT assay, BJ fibroblasts. As to conditions: Homo sapiens, non-malignant fibroblasts, 72 h, read-out: MTT, IC50 BJ.
Excerpt: as §1, §2

A further experiment relates to HeLa S3. As to the kind of experiment: XTT cytotoxicity assay, HeLa S3. As to conditions: Homo sapiens, HeLa S3; 72 h incubation; read-out: XTT, IC50 HeLa S3. How it is done:
HL-60, Hela S3 and HepG2 cell lines (ATCC) were grown in RPMI-1640 or DMEM medium supplemented with 10% fetal calf serum, […] of streptomycin, 200 U/mL of penicillin G and 4 mM glutamine in a humidified atmosphere containing 5% CO2 at 37° C. Sensitivity of these cell lines to the synthesized compounds was assessed with the use of XTT cell proliferation kit II (Roche Diagnostics GmbH, Mannheim, Germany) according to the manufacturer's instructions. Briefly, cells were seeded in a 96-well plate at a density of 10,000 cells per well (90 μL). After 24 h, 10 μL of the tested compounds were added to the culture media at desired concentration range and incubated for 72 h. After that 50 μL of the XTT solution was added (1 mg/mL XTT+0.383 mg/mL N-methyl dibenzopyrazine methyl sulfate). The absorbance was recorded at 495 nm following a 2 h-incubation with the dye. IC50 values were determined by non-linear regression method using GraphPad Prism version 5.00 for Windows (GraphPad Software, La Jolla, Calif., USA).
In addition, the anti-proliferative effect was tested against a human T-lymphoblastic leukemia line CCRF-CEM, promyelocytic leukemia HL-60 and cervical carcinoma HeLa S3 growing in liquid suspension. Cell viability was determined following a 3-day incubation using 2,3-bis-(2-methoxy-4-nitro-5-sulfophenyl)-2H-tetrazolium-5-carboxanilide (XTT) assay (ref.: Scudiero, D. A.; Shoemaker, R. H.; Paull, K. D.; Monks, A.; Tierney, S.; Nofziger, T. H.; Currens, M. J.; Seniff, D.; Boyd M. R. Evaluation of a Soluble Tetrazolium/Formazan Assay for Cell Growth and Drug Sensitivity in Culture Using Human and Other Tumor Cell Lines. Cancer Res. 1988, 48, 4827-4833).

Experiment [1] deals with HCV subtype 2A replicon in Huh-7 cells. The experiment is described as follows: HCV sub-genomic reporter replicon assay, subtype 2A. As to conditions: Hepatitis C virus; Huh-7 cells, HCV subtype 2A replicon; read-out: Replicon 2A EC50. How it is done:
Compounds were also tested in Huh-7 cells harboring sub-genomic reporter replicons derived from HCV subtypes 1B and 2A (ref.: Stuyver, L. J.; Whitaker, T.; McBrayer, T. R.; Hernandez-Santiago, B. I.; Lostia, S.; Tharnish, P. M.; Ramesh, M.; Chu, C. K.; Jordan, R.; Shi, J. X.; Rachakonda, S.; Watanabe, K. A.; Otto, M. J.; Schinazi, R. F. Antimicrob. Agents Chemother. 2003, 47, 244-254).
(A replicon is a self-replicating genome or part of one, used to study replication in cells.)

The term EC50 denotes the concentration giving half of the maximal effect.

For `CSc1ncnc2c1c(-c1ccccc1)cn2[C@@H]1O[C@H](CO)[C@@H](O)[C@H]1O` [Compound 2e, 4-Methylsulfanyl-5-phenyl-7-(β-D-ribofuranosyl)-7H-pyrrolo[2,3-d]pyrimidine], the IC50 with CCRF-CEM is > 20 µM; with K562, > 20 µM; in the experiment with HCT116p53-/-, > 20 µM; in the experiment on BJ, > 100 µM; with HeLa S3, > 20 µM. Further, the EC50 in experiment [1] was > 44 µM.
In the case of `CSc1ncnc2c1c(-c1cc3ccccc3o1)cn2[C@@H]1O[C@H](CO)[C@@H](O)[C@H]1O` [Compound 2f, 5-(Benzofuran-2-yl)-4-methylsulfanyl-7-(β-D-ribofuranosyl)-7H-pyrrolo[2,3-d]pyrimidine], the IC50 is > 20 µM in the experiment on CCRF-CEM; 17.2 µM in the experiment with K562; > 20 µM with HCT116p53-/-; 67.2 µM with BJ; 1.93 µM in the experiment with HeLa S3. Further, the concentration giving a half-maximal response (EC50) in experiment [1] was found to be 29.6 µM.
With `C#Cc1cn([C@@H]2O[C@H](CO)[C@@H](O)[C@H]2O)c2ncnc(SC)c12` [Compound 2g, 5-Ethynyl-4-methylsulfanyl-7-(β-D-ribofuranosyl)-7H-pyrrolo[2,3-d]pyrimidine], the IC50 was > 20 µM with CCRF-CEM; 0.03 µM with K562; 0.09 µM in the experiment with HCT116p53-/-; 68.6 µM in the experiment on BJ; 0.11 µM in the experiment with HeLa S3. Also, the concentration giving a half-maximal response (EC50) in experiment [1] was > 44 µM.
Consider `CSc1ncnc2c1c(I)cn2[C@@H]1O[C@H](CO)[C@@H](O)[C@H]1O` [Compound 2h, 5-Iodo-4-methylsulfanyl-7-(β-D-ribofuranosyl)-7H-pyrrolo[2,3-d]pyrimidine], for which the IC50 in the experiment on CCRF-CEM was > 20 µM; with K562, 10.5 µM; with HCT116p53-/- it was > 20 µM; with BJ, 86.1 µM; in the experiment on HeLa S3 it was 0.25 µM. The concentration for a half-maximal effect (EC50) in experiment [1] is > 44 µM.
`CNc1ncnc2c1c(-c1ccco1)cn2[C@@H]1O[C@H](CO)[C@@H](O)[C@H]1O` [Compound 3a, 5-(Furan-2-yl)-4-methylamino-7-(β-D-ribofuranosyl)-7H-pyrrolo[2,3-d]pyrimidine]: the IC50 with CCRF-CEM was determined as 0.18 µM; with K562 it was 0.22 µM; in the experiment with HCT116p53-/-, 0.44 µM; with BJ it was 5.04 µM; in the experiment with HeLa S3, 5 µM. The EC50 in experiment [1] was 0.14 µM.
Consider `CNc1ncnc2c1c(-c1ccoc1)cn2[C@@H]1O[C@H](CO)[C@@H](O)[C@H]1O` [Compound 3b, 5-(Furan-3-yl)-4-methylamino-7-(β-D-ribofuranosyl)-7H-pyrrolo[2,3-d]pyrimidine], for which the IC50 in the experiment with CCRF-CEM was > 20 µM; in the experiment on K562 it was > 20 µM; in the experiment with HCT116p53-/-, > 20 µM; with BJ, 96.3 µM; with HeLa S3, > 20 µM. For the same compound, the half-maximal effective concentration (EC50) in experiment [1] is > 44 µM.
As for `CNc1ncnc2c1c(-c1cccs1)cn2[C@@H]1O[C@H](CO)[C@@H](O)[C@H]1O` [Compound 3c, 4-Methylamino-7-(β-D-ribofuranosyl)-5-(thiophen-2-yl)-7H-pyrrolo[2,3-d]pyrimidine], the IC50 in the experiment with CCRF-CEM was > 20 µM; in the experiment on K562 it was > 20 µM; with HCT116p53-/-, > 20 µM; with BJ, > 100 µM; with HeLa S3, > 20 µM. In experiment [1], the EC50 is > 44 µM.
Regarding `CNc1ncnc2c1c(-c1ccsc1)cn2[C@@H]1O[C@H](CO)[C@@H](O)[C@H]1O` [Compound 3d, 4-Methylamino-7-(β-D-ribofuranosyl)-5-(thiophen-3-yl)-7H-pyrrolo[2,3-d]pyrimidine], the IC50 is > 20 µM in the experiment with CCRF-CEM; > 20 µM in the experiment with K562; > 20 µM with HCT116p53-/-; > 100 µM with BJ; > 20 µM with HeLa S3. Moreover, the EC50 in experiment [1] was > 44 µM.
`CNc1ncnc2c1c(-c1ccccc1)cn2[C@@H]1O[C@H](CO)[C@@H](O)[C@H]1O` [Compound 3e, 4-Methylamino-5-phenyl-7-(β-D-ribofuranosyl)-7H-pyrrolo[2,3-d]pyrimidine]: the IC50 in the experiment on CCRF-CEM is > 20 µM; with K562, > 20 µM; in the experiment on HCT116p53-/-, > 100 µM; in the experiment with BJ it was > 100 µM; in the experiment on HeLa S3, > 20 µM. Further, the 50% effective concentration (EC50) in experiment [1] is > 44 µM.
Regarding `CNc1ncnc2c1c(-c1cc3ccccc3o1)cn2[C@@H]1O[C@H](CO)[C@@H](O)[C@H]1O` [Compound 3f, 5-(Benzofuran-2-yl)-4-methylamino-7-(β-D-ribofuranosyl)-7H-pyrrolo[2,3-d]pyrimidine], the IC50 was > 20 µM in the experiment on CCRF-CEM; > 20 µM with K562; > 20 µM with HCT116p53-/-; 75.6 µM in the experiment on BJ; > 20 µM in the experiment on HeLa S3. Further, the concentration giving a half-maximal response (EC50) in experiment [1] came out at 13.6 µM.
In the case of `C#Cc1cn([C@@H]2O[C@H](CO)[C@@H](O)[C@H]2O)c2ncnc(NC)c12` [Compound 3g, 5-Ethynyl-4-methylamino-7-(β-D-ribofuranosyl)-7H-pyrrolo[2,3-d]pyrimidine], the IC50 with CCRF-CEM is > 20 µM; in the experiment on K562, > 20 µM; in the experiment with HCT116p53-/- it was > 20 µM; in the experiment with BJ it was 86 µM; with HeLa S3, > 20 µM. Also, in experiment [1], the EC50 was > 44 µM.
Turning to `CN(C)c1ncnc2c1c(-c1ccco1)cn2[C@@H]1O[C@H](CO)[C@@H](O)[C@H]1O` [Compound 4a, 4-Dimethylamino-5-(furan-2-yl)-7-(β-D-ribofuranosyl)-7H-pyrrolo[2,3-d]pyrimidine], the IC50 in the experiment with CCRF-CEM is 2.91 µM; with K562, 0.15 µM; in the experiment with HCT116p53-/-, 0.32 µM; in the experiment on BJ, > 100 µM; in the experiment on HeLa S3, 1.19 µM. Moreover, the EC50 in experiment [1] is 1.35 µM.

The record behind these values is US9586986B2, “Substituted 7-deazapurine ribonucleosides for therapeutic uses” (Institute of Organic Chemistry and Biochemistry ASCR, v.v.i., priority 2014, dated 2017).
